Measured values taken from patent US10729688B2, “Hepatitis B antiviral agents” (Enanta Pharmaceuticals, Inc., priority 2018, dated 2020).

Assays:
[1] = system: HBV; experiment: HepAD38 antiviral assay: reduction of viral product accumulation; assay type: cell-based; settings: Hepatitis B virus, 120 h; HepAD38 cells, tetracycline removed; harvest five days after compound addition; viral product (virion DNA by qPCR, or HBsAg/HBeAg by ELISA) reduced by 50% relative to no drug controls
Experimental: (§1) Methods: HepAD38 cells were maintained as previously reported (Ladner et al, Antimicrob. Agents Chemother. 1997, 4, 1715). Briefly, cells were passaged upon attaining confluency in DMEM/F12 media in the presence of 10% FBS, Penn/Strep, 250 μg/mL G418, and 1 ug/ml tetracycline. Compounds were screened by first washing cells three times with PBS to remove tetracycline, and plating in 96 well plates at 35,000 cells/well. Compounds dissolved in DMSO were then diluted 1:200 into wells containing cells. Five days after compound addition, material was harvested for analysis. For an extended 8 day analysis, cells were plated and treated as described above, but media and compound were refreshed on day 2 and day 5 post initial treatment.
On harvest day, virion DNA was obtained by lysing with Sidestep Lysis and Stabilization Buffer and then quantified via quantitative real time PCR. Commercially available ELISA kits were used to quantitate the viral proteins HBsAg (Alpco) or HbeAg (US Biological) by following the manufacturer's recommended protocol after diluting samples to match the linear range of their respective assays. Irrespective of readout, compound concentrations that reduce viral product accumulation in the cell lysates or supernatants by 50% relative to no drug controls (EC50) are reported; EC50 ranges are as follows: A<0.1 μM; B 0.1-0.2 μM; C>0.2 μM.

[2] = Compound toxicity, ATPLite total ATP levels; assay type: cell-based; settings: human, HepAD38 cells; 15,000 cells/well; three days after compound addition; total ATP levels reduced by 50% relative to no drug controls
Experimental: as §1
Compound toxicity was evaluated by seeding cells at 15,000 cells/well and treating with compound as described above.

| Structure (SMILES) | EC50 [1] [nM] | CC50 at 3 days [2] [µM] |
| --- | --- | --- |
| O=C1OC(c2ccccn2)CN1c1cnn2c1CN(C(=O)Nc1cc(F)c(F)c(F)c1)[C@H]1CCC[C@H]12 (some centres unmarked) [Example 45] | < 100 |  |
| CC(C)C[C@H]1COC(=O)N1c1cnn2c1CN(C(=O)Nc1cc(F)c(F)c(F)c1)[C@H]1CCC[C@H]12 [Example 68] | 100 to 200 |  |
| O=C(Nc1ccc(F)c(F)c1)N1Cc2c(N3CCCS3(=O)=O)cnn2CC12CC2 [Example 16] | > 200 |  |
| O=C(Nc1cc(F)c(F)c(F)c1)N1Cc2c(N3C(=O)O[C@H]4CCCC[C@@H]43)cnn2[C@@H]2CCC[C@@H]21 [Example 54] | < 100 |  |
| O=C(Nc1cc(F)c(F)c(F)c1)N1Cc2c(N3CCCS3(=O)=O)cnn2C[C@@H]1c1ccccc1 [Example 71] | < 100 |  |
| O=C(Nc1cc(F)c(F)c(F)c1)N1Cc2c(N3CCCS3(=O)=O)cnn2C[C@@H]1c1cnco1 [Example 75] | 100 to 200 |  |
| O=C1OCCCN1c1cnn2c1CN(C(=O)Nc1cc(F)c(F)c(F)c1)[C@H]1CCC[C@H]12 [Example 66] | 100 to 200 |  |
| O=C(Nc1cc(F)c(F)c(F)c1)N1Cc2c(-c3ccc(F)cc3)cnn2[C@H]2CCC[C@H]21 [Example 1] | > 200 |  |
| O=C(Nc1cc(F)c(F)c(F)c1)N1Cc2c(N3C(=O)OC[C@@H]3C3CC3)cnn2[C@@H]2CCC[C@@H]21 [Example 58] | 100 to 200 |  |
| O=C1CCCN1c1cnn2c1CN(C(=O)Nc1cc(F)c(F)c(F)c1)[C@H]1CCC[C@H]12 [Example 37] | < 100 |  |
| CCC(=O)Oc1cnn2c1CN(C(=O)Nc1cc(F)c(F)c(F)c1)[C@H]1CCC[C@H]12 [Example 47] | > 200 |  |
| COC(=O)Nc1cnn2c1CN(C(=O)Nc1cc(F)c(F)c(F)c1)[C@H]1CCC[C@H]12 [Example 41] | > 200 |  |
| O=C1OC(C2CCCC2)CN1c1cnn2c1CN(C(=O)Nc1cc(F)c(F)c(F)c1)[C@H]1CCC[C@H]12 (some centres unmarked) [Example 46] | > 200 |  |
| O=C(Nc1ccc(F)c(F)c1)N1Cc2c(-c3ccc(F)cc3)cnn2[C@H]2CCC[C@H]21 [Example 2] | > 200 |  |
| O=C1OC(c2ccccc2)CN1c1cnn2c1CN(C(=O)Nc1cc(F)c(F)c(F)c1)[C@H]1CCC[C@H]12 (some centres unmarked) [Example 40] | < 100 |  |
| O=C(Nc1cc(F)c(F)c(F)c1)N1Cc2c(N3CCCS3(=O)=O)cnn2C[C@@H]1c1ncc[nH]1 [Example 74] | > 200 |  |
| C[C@@H]1N(c2cnn3c2CN(C(=O)Nc2cc(F)c(F)c(F)c2)[C@H]2CCC[C@H]23)C(=O)OC1(C)C [Example 15] | < 100 | > 25 |
| O=C(Nc1cc(F)c(F)c(F)c1)N1Cc2c(-c3cscn3)cnn2[C@@H]2CCC[C@@H]21 [Example 13] | < 100 |  |
| O=C(Nc1cc(F)c(F)c(F)c1)N1Cc2c(N3CCCS3(=O)=O)cnn2C[C@@H]1C1CC1 [Example 73] | < 100 | > 25 |
| C[C@@H]1N(c2cnn3c2CN(C(=O)Nc2ccc(F)c(Cl)c2)[C@H]2CCC[C@H]23)C(=O)OC1(C)C [Example 18] | < 100 | > 25 |

| Structure (SMILES) | EC50 [1] [nM] | CC50 at 3 days [2] [µM] |
| --- | --- | --- |
| O=C(Nc1cc(F)c(F)c(F)c1)N1Cc2c(N3C(=O)OC[C@H]3C3CC3)cnn2[C@@H]2CCC[C@@H]21 [Example 59] | < 100 |  |
| O=C(Nc1cc(F)c(F)c(F)c1)N1Cc2c(N3CCCS3(=O)=O)cnn2[C@@H]2CCC[C@@H]21 [Example 10] | < 100 | > 25 |
| CC1(C)COC(=O)N1c1cnn2c1CN(C(=O)Nc1cc(F)c(F)c(F)c1)[C@H]1CCC[C@H]12 [Example 60] | < 100 | > 25 |
| O=C(Nc1ccc(F)c(F)c1)N1Cc2c(N3CCCS3(=O)=O)cnn2[C@H]2CCC[C@H]21 [Example 5] | 100 to 200 |  |
| O=C(Nc1cc(F)c(F)c(F)c1)N1Cc2c(N3C(=O)OC[C@@H]3Cc3ccccc3)cnn2[C@@H]2CCC[C@@H]21 [Example 64] | 100 to 200 |  |
| O=C(Nc1cc(F)c(F)c(F)c1)N1Cc2c(N3C(=O)O[C@@H]4CCC[C@@H]43)cnn2[C@@H]2CCC[C@@H]21 [Example 39] | < 100 |  |
| O=C(Nc1ccc(F)c(Cl)c1)N1Cc2c(N3CCCS3(=O)=O)cnn2[C@H]2CCC[C@H]21 [Example 6] | < 100 |  |
| C[C@@H]1N(c2cnn3c2CN(C(=O)Nc2ccc(F)c(F)c2)[C@H]2CCC[C@H]23)C(=O)OC1(C)C [Example 17] | < 100 | > 25 |
| CC(C)[C@@H]1N(c2cnn3c2CN(C(=O)Nc2cc(F)c(F)c(F)c2)[C@H]2CCC[C@H]23)C(=O)OC1(C)C [Example 65] | < 100 |  |
| CC(C)[C@H]1COC(=O)N1c1cnn2c1CN(C(=O)Nc1cc(F)c(F)c(F)c1)[C@H]1CCC[C@H]12 [Example 26] | < 100 | > 25 |
| O=C(Nc1ccc(F)c(F)c1)N1Cc2c(N3CCCS3(=O)=O)cnn2[C@@H]2CCC[C@@H]21 [Example 11] | < 100 | > 25 |
| O=C(Nc1cc(F)c(F)c(F)c1)N1Cc2c(N3C(=O)OC[C@@H]3C3CCCC3)cnn2[C@@H]2CCC[C@@H]21 [Example 56] | 100 to 200 |  |
| O=C(Nc1cc(F)c(F)c(F)c1)N1Cc2c(N3C(=O)OCC34CC4)cnn2[C@@H]2CCC[C@@H]21 [Example 61] | 100 to 200 |  |
| O=C(Nc1cc(F)c(F)c(F)c1)N1Cc2c(-c3ccc(F)cc3)cnn2[C@@H]2CCC[C@@H]21 [Example 7] | 100 to 200 |  |
| O=C(Nc1ccc(F)c(Cl)c1)N1Cc2c(-c3ccc(F)cc3)cnn2[C@H]2CCC[C@H]21 [Example 3] | > 200 |  |
| CC(C)C[C@@H]1N(c2cnn3c2CN(C(=O)Nc2cc(F)c(F)c(F)c2)[C@H]2CCC[C@H]23)C(=O)OC1(C)C [Example 69] | > 200 |  |
| CC1(C)OC(=O)N(c2cnn3c2CN(C(=O)Nc2cc(F)c(F)c(F)c2)[C@H]2CCC[C@H]23)[C@H]1Cc1ccccc1 [Example 70] | < 100 |  |
| O=C1OCCN1c1cnn2c1CN(C(=O)Nc1cc(F)c(F)c(F)c1)[C@H]1CCC[C@H]12 [Example 36] | > 200 |  |
| O=C(Nc1cc(F)c(F)c(F)c1)N1Cc2c(N3CCCS3(=O)=O)cnn2[C@H]2CCC[C@H]21 [Example 4] | < 100 |  |
| O=C(Nc1cc(F)c(F)c(F)c1)N1Cc2c(N3CCCS3(=O)=O)cnn2[C@@H]2COC[C@@H]21 [Example 63] | > 200 |  |

| Structure (SMILES) | EC50 [1] [nM] | CC50 at 3 days [2] [µM] |
| --- | --- | --- |
| CC1(C)CCN(c2cnn3c2CN(C(=O)Nc2cc(F)c(F)c(F)c2)[C@H]2CCC[C@H]23)C(=O)O1 [Example 67] | < 100 |  |
| CCS(=O)(=O)N(C)c1cnn2c1CN(C(=O)Nc1cc(F)c(F)c(F)c1)[C@H]1CCC[C@H]12 [Example 62] | > 200 |  |
| O=C(Nc1cc(F)c(F)c(F)c1)N1Cc2c(N3CCCS3(=O)=O)cnn2[C@@H]2CCCC[C@@H]21 [Example 51] | < 100 | > 25 |
| O=C1OC2(CC2)CN1c1cnn2c1CN(C(=O)Nc1cc(F)c(F)c(F)c1)[C@H]1CCC[C@H]12 [Example 55] | < 100 |  |
| O=C(Nc1ccc(F)c(Cl)c1)N1Cc2c(-c3ccc(F)cc3)cnn2[C@@H]2CCC[C@@H]21 [Example 9] | > 200 |  |
| O=C(Nc1ccc(F)c(Cl)c1)N1Cc2c(N3CCCS3(=O)=O)cnn2[C@@H]2CCC[C@@H]21 [Example 12] | < 100 | > 25 |
| O=C(Nc1cc(F)c(F)c(F)c1)N1Cc2c(N3CCCS3(=O)=O)cnn2C[C@@H]1c1ccccn1 [Example 72] | < 100 | > 25 |
| O=C(Nc1ccc(F)c(F)c1)N1Cc2c(-c3ccc(F)cc3)cnn2[C@@H]2CCC[C@@H]21 [Example 8] | < 100 |  |
| CC1(C)CN(c2cnn3c2CN(C(=O)Nc2cc(F)c(F)c(F)c2)[C@H]2CCC[C@H]23)C(=O)O1 [Example 19] | < 100 | > 25 |
| C[C@@H]1CN(c2cnn3c2CN(C(=O)Nc2cc(F)c(F)c(F)c2)[C@H]2CCC[C@H]23)C(=O)O1 [Example 44] | < 100 |  |
| O=C(Nc1cc(F)c(F)c(F)c1)N1Cc2c(N3CCCS3(=O)=O)cnn2C[C@@H]1c1ccn[nH]1 [Example 76] | > 200 |  |
| C[C@H]1COC(=O)N1c1cnn2c1CN(C(=O)Nc1cc(F)c(F)c(F)c1)[C@H]1CCC[C@H]12 [Example 38] | 100 to 200 |  |
| O=C(Nc1ccc(F)c(F)c1)N1Cc2c(-c3cscn3)cnn2[C@@H]2CCC[C@@H]21 [Example 14] | < 100 |  |
| O=C(Nc1cc(F)c(F)c(F)c1)N1Cc2c(N3C(=O)OC[C@@H]3c3ccccc3)cnn2[C@@H]2CCC[C@@H]21 [Example 52] | > 200 |  |
| CCS(=O)(=O)Nc1cnn2c1CN(C(=O)Nc1cc(F)c(F)c(F)c1)[C@H]1CCC[C@H]12 [Example 43] | > 200 |  |
| O=C1OC2(CCCC2)CN1c1cnn2c1CN(C(=O)Nc1cc(F)c(F)c(F)c1)[C@H]1CCC[C@H]12 [Example 57] | < 100 |  |
| O=C(Nc1cc(F)c(F)c(F)c1)N1Cc2c(N3C(=O)C[C@H]4CCC[C@H]43)cnn2[C@@H]2CCC[C@@H]21 [Example 49] | 100 to 200 |  |
| O=C(Nc1cc(F)c(F)c(F)c1)N1Cc2c(N3C(=O)C[C@@H]4CCC[C@@H]43)cnn2[C@@H]2CCC[C@@H]21 [Example 48] | < 100 |  |
| O=C1CC2(CC2)CN1c1cnn2c1CN(C(=O)Nc1cc(F)c(F)c(F)c1)[C@H]1CCC[C@H]12 [Example 50] | < 100 |  |
